# Experimental data as given in US11400082B2, “Methods of treating elevated plasma cholesterol” (Montréal Heart Institute, priority 2017, dated 2022).
# Tests used:
# LDLR protein = assay: Western blot analysis, relative quantification of LDLR protein levels; format: cell-based, human; details: overnight, hepatoma cells (HepG2, FIG. 13), normalized to actin, vehicle (DMSO) = 1
# Description: For sterol-regulated conditions, HepG2 cells were incubated in 5% LPDS, 50 μM mevastatin, and 50 μM mevalonolactone in the absence (-sterols) or presence of 1 μg/ml 25-hydroxycholesterol and 10 μg/ml cholesterol (+sterols). For inhibitor treatments HepG2 cells were treated with DMSO or 10 μM compounds 2 in combination with U0126 (25 μM, catalog no. 9903, Cell Signaling Technology), Cycloheximide (CHX; 20 μg/ml, catalog no. C7698, Sigma-Aldrich), PD153035 (20 μM, catalog no. 14879, Cayman Chemical), bisindolylmaleimide I (BIM; 10 μM, catalog no. 13298, Cayman Chemical), H-89 (10 μM, catalog no. 10010556, Cayman Chemical), Dorsomorphin (5 μM, catalog no. 11967, Cayman Chemical) or 5-Azacytidine (10 μM, catalog no. A2385, Sigma-Aldrich).
# Treated cells from Example 28 were washed three times in phosphate-buffered saline (PBS) and lysed in radioimmune precipitation assay buffer (50 mM Tris/HCl, pH 8.0, 1% (v/v) Nonidet P-40, 0.5% sodium deoxycholate, 150 mM NaCl, and 0.1% (v/v) SDS) supplemented with a complete protease inhibitor mixture (catalog no. 11 697 498 001, Roche Applied Science). Proteins were separated by 8% SDS polyacrylamide gel electrophoresis, blotted on nitrocellulose membranes (Bio-Rad), and blocked for 1 h in Tris-buffered saline-Tween 20 (TBS-T; 50 mM Tris-HCl, pH 7.5, 150 mM NaCl, 0.1% Tween 20) containing 5% nonfat dry milk. Membranes were then incubated overnight in TBS-T supplemented with 1% nonfat milk and the indicated antibodies; goat anti-human LDLR (1:1000; catalog no. AF2148, R&D Systems), rabbit anti-actin (1:5000; catalog no. A2066, Sigma-Aldrich). Appropriate HRP-conjugated secondary antibodies (1:10,000; GE healthcare) were used for detection using the Western Lightning Ultra chemiluminescence kit (catalog no. NEI112001EA, PerkinElmer Life Sciences) and BioFlex EC Films (catalog no. CLEC810, InterScience). Unsaturated films were numerized using the high resolution CanoScan 9000F scanner and corresponding bands were quantified using the ImageJ software (NIH). Relative quantification of LDLR protein levels were normalized to that of actin and compared to vehicle (DMSO) herein determined as 1.
# in vitro = details: pH 7.4; for -k: 1 μM; for half-life at 1 μM / microsomal CLint at 1 μM: microsomes
# Description: Pooled human liver microsomes (HLM; Cat #X008067 lot IHG) and pooled male Sprague Dawley rat liver microsomes (RLM; Cat #M00001 Lot NNK) were purchased from BioreclamationIVT, Baltimore, Md. NADPH (Cat #N1630, 95% HPLC) and DMSO (GC grade) were purchased from Sigma-Aldrich, Canada. Potassium phosphate buffer (100 mM) with magnesium chloride pH 7.4 was prepared freshly. […] Reactions were initiated by adding NADPH (final concentration 1 mM) in all the wells. Reactions without NADPH were also incubated (final point only) to rule out non-NADPH metabolism or chemical instability in the incubation buffer. Reactions were terminated at each time point (0, 5, 10, 20, 30, 45 and 60 min) by transferring 50 μL in a new 96 well plate and adding 100 μl of acetonitrile containing an internal standard (labetalol at 2 μM). The plates were centrifuged at 4000 rpm for 5 min, and an aliquot of supernatant was diluted with one volume of water+0.1% formic acid before analysis by LC-MS/MS. Reference samples were also prepared at concentrations between 0.002 and 2 μM in buffer containing microsomes, by adding the diluted solutions of the compound to the buffer containing microsomes quenched with 2 volume of acetonitrile containing the internal standard (whereas the incubation T0 is obtained by quenching the microsomes containing the compound, then adding NADPH). Samples were monitored for parent compound disappearance in Multi Reaction Monitoring (MRM) mode using LC-MS/MS. The peak area ratios of analyte versus internal standard compared to the calibration curve were used to calculate concentration at each time point. The elimination constant (ke, min-1) was obtained from the log-linear regression of the concentration (y) versus time (t). The half-life was calculated as T½ (min)=0.693/ke. The microsomal intrinsic clearance (Clint, μL/min/mg of protein) was calculated by the following equation: […]
# Golden Syrian = assay: Efficacy and safety in hypercholesterolemic animal models, Golden Syrian; format: in vivo; details: 10 days
# Description: For in vivo proof-of-concept animal studies, wild-type C57BL/6 male mice (˜25 g; obtained from Charles River Laboratories) or Golden Syrian (˜120 g obtained from Envigo++) were housed in the 12 hour light/12 hour dark cycle, temperature and humidity controlled MHI animal facility. […] TD.88137, Envigo) for 14 days. […] Equivalent volume of vehicle containing corresponding formulations were orally administered to mice daily and designated as placebo (vehicle). […] Total cholesterol (catalog no. 439-17501, Wako) was quantified in total plasma and in each 0.3 mL collected fractions or in-line (Lipidomics Core of The Group on Molecular and Cell Biology of Lipids, University of Alberta) according to the manufacturer's instructions. Relative quantitation of AUC of total cholesterol corresponding to non-HDL lipoprotein positive fractions obtained from FPLC profiles are included in Table 3. Serum aspartate aminotransferase (AST) and alanine transaminase (ALT) were measured by the Montreal Heart Institute biochemical clinical chemistry platform according to manufacturer's recommendations.
# [1] = HFD, 40 mpk/d, animals out of n
smiles,measurement,setting,value
"O=C(NO)c1ncc(COc2ccc(F)cc2)c(CO)c1O [Compound 2, 5-(4-fluoro-phenoxymethyl)-3-hydroxy-4-hydroxymethyl-pyridine-2-carboxylic acid hydroxyamide]",LDLR Fold Change 10 nM,LDLR protein; 10 nM,2
same,LDLR Fold Change 10 μM,LDLR protein; 10 μM,6.3
same,-k,in vitro; human,0.000703 ± 1.9e-05 min⁻¹
same,half-life at 1 μM,in vitro; human,16.4 ± 0.45 h
same,microsomal CLint at 1 μM,in vitro; human,1.17 ± 0.03 µL/min/mg
same,-k,"in vitro; male, Sprague Dawley, rat",0.00126 ± 0.00019 min⁻¹
same,half-life at 1 μM,"in vitro; male, Sprague Dawley, rat",6.73 ± 0.467 h
same,microsomal CLint at 1 μM,"in vitro; male, Sprague Dawley, rat",6.19 ± 0.42 µL/min/mg
same,LDL-C (%) (FPLC TC) (pooled plasma),"Golden Syrian; Chow, 40 mpk/d, n 3",−12%
same,LDL-C (%) (FPLC TC) (pooled plasma),"Golden Syrian; HFD, 5 mpk/d, n 3",−21 ± 10%
same,LDL-C (%) (FPLC TC) (pooled plasma),"Golden Syrian; HFD, 10 mpk/d, n 3",−15 ± 16%
same,LDL-C (%) (FPLC TC) (pooled plasma),"Golden Syrian; HFD, 20 mpk/d, n 3",−40 ± 7%
same,ALT (3 × ULN),Golden Syrian; [1],0/3
same,AST (3 × ULN),Golden Syrian; [1],0/3
same,LDL-C (%) (FPLC TC) (pooled plasma),"Golden Syrian; HFD, 40 mpk/d, n 3 (second HFD 40 mpk/d line)",−26 ± 12%
same,LDL-C (%) (FPLC TC) (pooled plasma),"Golden Syrian; HFD, 40 mpk/d, n 3, value marked (n = 1)",−47%
